Source: ChEMBL document CHEMBL4602604, “A Selective and Brain Penetrant p38αMAPK Inhibitor Candidate for Neurologic and Neuropsychiatric Disorders That Attenuates Neuroinflammation and Cognitive Dysfunction” (J Med Chem, 2019)
Calls of active or inactive are those of the source. No cut-off for these calls is given here.

How the values were obtained:
[1] = human, microsomes, 1 µM
Mus musculus [2] = test: Suppression of human recombinant tau-induced memory impairment in C57Bl/6 mouse model of oligomeric tau infusion model assessed as attenuation of deficits in spatial and associative memory performance at 5 mg/kg, ip dosed 20 mins prior to start of testing by radial arm water maze test; assay type: functional, organism-based
Mus musculus [3] = test: Suppression of human recombinant tau-induced memory impairment in C57Bl/6 mouse model of oligomeric tau infusion model assessed as attenuation of deficits in spatial and associative memory performance at 5 mg/kg, ip dosed 20 mins prior to start of testing by contextual fear conditioning assay; assay type: functional, organism-based
Mus musculus [4] = test: Suppression of cognitive dysfunction in transgenic rTg4510 mouse model assessed as reduction in errors at […], po dosed every other day for 45 days by radial arm water maze test; assay type: functional, organism-based
Mus musculus [5] = test: Suppression of cognitive dysfunction in transgenic rTg4510 mouse model assessed as rescue of freezing deficit at […], po dosed every other day for 45 days by contextual fear conditioning assay; assay type: functional, organism-based
Mus musculus [6] = test: Suppression of cognitive dysfunction in transgenic rTg4510 mouse model assessed as prevention of cortical tissue loss at […], po dosed every other day for 45 days; assay type: functional, organism-based
Mus musculus [7] = test: Suppression of cognitive dysfunction in transgenic rTg4510 mouse model assessed as prevention of hippocampal tissue loss at […], po dosed every other day for 45 days; assay type: functional, organism-based
Mus musculus [8] = test: Effect on memory function in C57Bl/6 mouse at 5 mg/kg, ip dosed 20 mins prior to start of testing by radial arm water maze test; assay type: ADME, organism-based; conditions: in vivo
Cytochrome P450 1A2 = Cytochrome P450 1A2 (Homo sapiens, UniProt P05177); test: Inhibition of human recombinant CYP1A2 at 10 uM incubated for 10 to 30 mins in presence of CYP-specific probe CEC substrate by LC-MS/MS analysis; assay type: ADME; conditions: recombinant enzyme
Cytochrome P450 2B6 = Cytochrome P450 2B6 (Homo sapiens, UniProt P20813); test: Inhibition of human recombinant CYP2B6 at 10 uM incubated for 10 to 30 mins in presence of CYP-specific probe EFC substrate by LC-MS/MS analysis; assay type: ADME; conditions: recombinant enzyme
Cytochrome P450 2C8 = Cytochrome P450 2C8 (Homo sapiens, UniProt P10632); test: Inhibition of human recombinant CYP2C8 at 10 uM incubated for 10 to 30 mins in presence of CYP-specific probe DBF substrate by LC-MS/MS analysis; assay type: ADME; conditions: recombinant enzyme
Cytochrome P450 2C9 = Cytochrome P450 2C9 (Homo sapiens, UniProt P11712); test: Inhibition of human recombinant CYP2C9 at 10 uM incubated for 10 to 30 mins in presence of CYP-specific probe MFC substrate by LC-MS/MS analysis; assay type: ADME; conditions: recombinant enzyme
Cytochrome P450 2C19 = Cytochrome P450 2C19 (Homo sapiens, UniProt P33261); test: Inhibition of human recombinant CYP2C19 at 10 uM incubated for 10 to 30 mins in presence of CYP-specific probe CEC substrate by LC-MS/MS analysis; assay type: ADME; conditions: recombinant enzyme
Cytochrome P450 2D6 = Cytochrome P450 2D6 (Homo sapiens, UniProt P10635); test: Inhibition of human recombinant CYP2D6 at 10 uM incubated for 10 to 30 mins in presence of CYP-specific probe MFC substrate by LC-MS/MS analysis; assay type: ADME; conditions: recombinant enzyme
Cytochrome P450 3A4 [9] = target: T1, Cytochrome P450 3A4 (Homo sapiens, UniProt P08684); test: Inhibition of human recombinant CYP3A4 at 10 uM incubated for 10 to 30 mins in presence of CYP-specific probe BFC substrate by LC-MS/MS analysis; assay type: ADME; conditions: recombinant enzyme
Cytochrome P450 3A4 [10] = target: T1, Cytochrome P450 3A4; test: Inhibition of human recombinant CYP3A4 at 10 uM incubated for 10 to 30 mins in presence of CYP-specific probe BzRes substrate by LC-MS/MS analysis; assay type: ADME; conditions: recombinant enzyme
[11] = Permeability in human Caco2 cells at 5 uM by LC-MS/MS analysis; assay type: ADME, cell-based; conditions: caco-2, 5 µM
[12] = Permeability in MDCK cells expressing BCRP at 5 uM by LC-MS/MS analysis; assay type: ADME, cell-based, Canis lupus familiaris; conditions: dog
[13] = Toxicity in wild type mouse assessed as induction of abnormalities in liver at 250 mg/kg; assay type: organism-based; conditions: in vivo
[14] = Toxicity in APP/PS1 knock-in mouse assessed as induction of abnormalities in liver at 250 mg/kg; assay type: organism-based; conditions: in vivo
[15] = target: Amine oxidase [flavin-containing] A (Rattus norvegicus, UniProt P21396); test: Inhibition of rat MAOA at 10 uM
[16] = target: Amine oxidase [flavin-containing] B (Homo sapiens, UniProt P27338); test: Inhibition of human MAOB at 10 uM
Acetylcholinesterase = Acetylcholinesterase (Homo sapiens, UniProt P22303); test: Inhibition of human acetyl cholinesterase at 10 uM
[17] = target: Prostaglandin G/H synthase 1 (Homo sapiens, UniProt P23219); test: Inhibition of human COX1 at 10 uM
[18] = target: Prostaglandin G/H synthase 2 (Homo sapiens, UniProt P35354); test: Inhibition of human COX2 at 10 uM
[19] = target: cGMP-inhibited 3',5'-cyclic phosphodiesterase 3A (Homo sapiens, UniProt Q14432); test: Inhibition of human PDE3A at 10 uM
[20] = target: 3',5'-cyclic-AMP phosphodiesterase 4D (Homo sapiens) (UniProt Q08499); test: Inhibition of human PDE4D2 at 10 uM
[21] = target: Alpha-1A adrenergic receptor (Homo sapiens) (UniProt P35348); test: Inhibition of human adrenergic alpha1a receptor at 10 uM
[22] = target: Alpha-2A adrenergic receptor (Homo sapiens) (UniProt P08913); test: Inhibition of human adrenergic alpha2a receptor at 10 uM
[23] = target: Beta-1 adrenergic receptor (Homo sapiens) (UniProt P08588); test: Inhibition of human adrenergic beta1 receptor at 10 uM
[24] = target: Beta-2 adrenergic receptor (Homo sapiens) (UniProt P07550); test: Inhibition of human adrenergic beta2 receptor at 10 uM
[25] = target: Androgen receptor (Homo sapiens) (UniProt P10275); test: Inhibition of human androgen receptor at 10 uM
[26] = target: Cannabinoid receptor 1 (Homo sapiens) (UniProt P21554); test: Inhibition of human CB1 receptor at 10 uM
[27] = target: Cannabinoid receptor 2 (Homo sapiens) (UniProt P34972); test: Inhibition of human CB2 receptor at 10 uM
[28] = target: GABA-A receptor; anion channel (Rattus norvegicus) (UniProt O09028+P15431+P18506+P18508+P19969+P20236+P23574+P23576+P28471+P28473+P30191+P62813+P63079+P63138+Q91ZM7+Q9ES14); test: Inhibition of rat GABAA receptor at 10 uM; assay type: protein-complex assay
[29] = target: D(1A) dopamine receptor (Homo sapiens) (UniProt P21728); test: Inhibition of human DRD1 receptor at 10 uM
[30] = target: D(2) dopamine receptor (Homo sapiens) (UniProt P14416); test: Inhibition of human D2S receptor at 10 uM
[31] = target: Cholecystokinin receptor type A (Homo sapiens) (UniProt P32238); test: Inhibition of human CCK1 receptor at 10 uM
[32] = target: Glucocorticoid receptor (Homo sapiens) (UniProt P04150); test: Inhibition of human glucocorticoid receptor at 10 uM
[33] = target: Histamine H1 receptor (Homo sapiens) (UniProt P35367); test: Inhibition of human histamine H1 receptor at 10 uM
[34] = target: Histamine H2 receptor (Homo sapiens) (UniProt P25021); test: Inhibition of human histamine H2 receptor at 10 uM
[35] = target: Muscarinic acetylcholine receptor M1 (Homo sapiens) (UniProt P11229); test: Inhibition of human muscarinic M1 receptor at 10 uM
[36] = target: Muscarinic acetylcholine receptor M3 (Homo sapiens) (UniProt P20309); test: Inhibition of human muscarinic M3 receptor at 10 uM
[37] = target: Glutamate NMDA receptor (Rattus norvegicus) (UniProt P35439+Q00959+Q00960+Q00961+Q62645+Q8VHN2+Q9R1M7); test: Inhibition of rat NMDA receptor at 10 uM; assay type: protein-complex assay
[38] = target: Neuronal acetylcholine receptor; alpha4/beta2 (Homo sapiens) (UniProt P17787+P43681); test: Inhibition of human alpha4beta2 nAChR receptor at 10 uM; assay type: protein-complex assay
[39] = target: Delta-type opioid receptor (Homo sapiens) (UniProt P41143); test: Inhibition of human OP1 receptor at 10 uM
[40] = target: Kappa-type opioid receptor (Homo sapiens) (UniProt P41145); test: Inhibition of human OP2 receptor at 10 uM
[41] = target: Mu-type opioid receptor (Homo sapiens) (UniProt P35372); test: Inhibition of human OP3 receptor at 10 uM
[42] = target: 5-hydroxytryptamine receptor 1A (Homo sapiens) (UniProt P08908); test: Inhibition of human 5HT1A receptor at 10 uM
[43] = target: 5-hydroxytryptamine receptor 1B (Homo sapiens) (UniProt P28222); test: Inhibition of human 5HT1B receptor at 10 uM
[44] = target: 5-hydroxytryptamine receptor 2A (Homo sapiens) (UniProt P28223); test: Inhibition of human 5HT2A receptor at 10 uM
[45] = target: 5-hydroxytryptamine receptor 2B (Homo sapiens) (UniProt P41595); test: Inhibition of human 5HT2B receptor at 10 uM
[46] = target: 5-hydroxytryptamine receptor 3A (Homo sapiens) (UniProt P46098); test: Inhibition of human 5HT3 receptor at 10 uM
[47] = target: Vasopressin V1a receptor (Homo sapiens) (UniProt P37288); test: Inhibition of human V1A receptor at 10 uM
[48] = target: Voltage-gated L-type calcium channel (Rattus norvegicus, UniProt P22002+Q02485+P27732); test: Inhibition of rat L-type calcium channel at 10 uM; assay type: protein assay
Rattus norvegicus [49] = organism: Rattus norvegicus; test: Inhibition of rat potassium channel at 10 uM
Rattus norvegicus [50] = organism: Rattus norvegicus; test: Inhibition of rat sodium sodium channel at 10 uM
[51] = target: Sodium-dependent dopamine transporter (Homo sapiens) (UniProt Q01959); test: Inhibition of human dopamine transporter at 10 uM
[52] = target: Sodium-dependent noradrenaline transporter (Homo sapiens) (UniProt P23975); test: Inhibition of human norepinephrine transporter at 10 uM
[53] = target: Sodium-dependent serotonin transporter (Homo sapiens) (UniProt P31645); test: Inhibition of human serotonin transporter at 10 uM
in vivo = conditions: mouse, po
Description: Toxicity in orally dosed wild type mouse dosed daily for 14 days

in vitro [54] = conditions: human, hepatocytes
Description: Half life in human hepatocytes at 1 uM by LC-MS/MS analysis

in vitro [55] = conditions: Beagle, dog, hepatocytes
Description: Half life in Beagle dog hepatocytes at 1 uM by LC-MS/MS analysis

[56] = target: Adenosine receptor A2a (Homo sapiens) (UniProt P29274); test: Inhibition of human adenosine A2A receptor at 10 uM

T1 sequence (P08684 whole entry): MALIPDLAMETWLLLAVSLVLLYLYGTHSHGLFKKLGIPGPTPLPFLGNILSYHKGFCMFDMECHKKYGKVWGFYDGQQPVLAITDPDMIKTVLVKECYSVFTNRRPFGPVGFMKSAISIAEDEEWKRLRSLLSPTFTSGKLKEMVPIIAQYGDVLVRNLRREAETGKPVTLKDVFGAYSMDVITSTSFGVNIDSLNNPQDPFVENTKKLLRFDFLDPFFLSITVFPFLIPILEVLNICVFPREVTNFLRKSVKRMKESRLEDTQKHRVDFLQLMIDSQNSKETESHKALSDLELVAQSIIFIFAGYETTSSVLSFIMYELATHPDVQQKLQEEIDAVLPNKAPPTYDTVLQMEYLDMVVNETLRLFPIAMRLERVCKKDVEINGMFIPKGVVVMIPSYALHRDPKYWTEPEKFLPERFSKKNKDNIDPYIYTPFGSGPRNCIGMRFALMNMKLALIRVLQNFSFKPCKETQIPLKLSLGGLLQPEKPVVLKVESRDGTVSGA
5-hydroxytryptamine receptor 1A (Homo sapiens), sequence (P08908 whole entry): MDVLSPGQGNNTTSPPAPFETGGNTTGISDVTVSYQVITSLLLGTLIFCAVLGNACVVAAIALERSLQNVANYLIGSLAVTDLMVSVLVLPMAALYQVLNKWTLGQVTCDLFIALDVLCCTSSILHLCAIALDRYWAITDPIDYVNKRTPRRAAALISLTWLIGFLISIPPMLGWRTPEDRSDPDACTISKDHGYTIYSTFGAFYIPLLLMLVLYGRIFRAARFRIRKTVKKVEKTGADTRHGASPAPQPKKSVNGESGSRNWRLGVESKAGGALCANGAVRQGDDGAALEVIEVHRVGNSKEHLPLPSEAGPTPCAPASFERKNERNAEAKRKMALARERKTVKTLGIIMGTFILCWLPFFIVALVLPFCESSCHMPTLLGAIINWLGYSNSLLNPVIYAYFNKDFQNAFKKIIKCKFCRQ
Histamine H2 receptor (Homo sapiens), sequence (P25021 whole entry): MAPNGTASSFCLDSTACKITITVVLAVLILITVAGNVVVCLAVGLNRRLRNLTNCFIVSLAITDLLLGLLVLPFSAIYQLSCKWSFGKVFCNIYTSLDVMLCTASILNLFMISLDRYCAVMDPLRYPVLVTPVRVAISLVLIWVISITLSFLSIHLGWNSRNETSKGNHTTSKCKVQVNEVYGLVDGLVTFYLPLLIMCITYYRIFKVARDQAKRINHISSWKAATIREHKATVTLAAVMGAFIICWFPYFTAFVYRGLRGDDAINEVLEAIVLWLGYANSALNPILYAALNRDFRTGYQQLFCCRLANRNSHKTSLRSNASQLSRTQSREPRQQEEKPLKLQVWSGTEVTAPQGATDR
Amine oxidase [flavin-containing] A, sequence (P21396 whole entry): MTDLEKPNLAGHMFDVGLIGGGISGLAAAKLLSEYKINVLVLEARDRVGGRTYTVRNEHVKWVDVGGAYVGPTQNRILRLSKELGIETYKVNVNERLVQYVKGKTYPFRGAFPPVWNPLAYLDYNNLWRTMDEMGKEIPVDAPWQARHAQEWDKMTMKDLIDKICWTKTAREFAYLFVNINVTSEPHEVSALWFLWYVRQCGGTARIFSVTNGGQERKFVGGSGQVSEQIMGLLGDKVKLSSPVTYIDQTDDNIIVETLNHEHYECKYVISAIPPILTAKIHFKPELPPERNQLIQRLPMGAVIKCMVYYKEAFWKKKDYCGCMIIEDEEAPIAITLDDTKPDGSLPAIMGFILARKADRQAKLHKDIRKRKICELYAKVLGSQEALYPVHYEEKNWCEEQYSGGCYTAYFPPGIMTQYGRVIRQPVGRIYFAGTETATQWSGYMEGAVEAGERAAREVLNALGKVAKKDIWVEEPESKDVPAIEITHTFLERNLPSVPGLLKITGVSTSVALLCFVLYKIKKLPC
Sodium-dependent noradrenaline transporter (Homo sapiens), sequence (P23975 whole entry): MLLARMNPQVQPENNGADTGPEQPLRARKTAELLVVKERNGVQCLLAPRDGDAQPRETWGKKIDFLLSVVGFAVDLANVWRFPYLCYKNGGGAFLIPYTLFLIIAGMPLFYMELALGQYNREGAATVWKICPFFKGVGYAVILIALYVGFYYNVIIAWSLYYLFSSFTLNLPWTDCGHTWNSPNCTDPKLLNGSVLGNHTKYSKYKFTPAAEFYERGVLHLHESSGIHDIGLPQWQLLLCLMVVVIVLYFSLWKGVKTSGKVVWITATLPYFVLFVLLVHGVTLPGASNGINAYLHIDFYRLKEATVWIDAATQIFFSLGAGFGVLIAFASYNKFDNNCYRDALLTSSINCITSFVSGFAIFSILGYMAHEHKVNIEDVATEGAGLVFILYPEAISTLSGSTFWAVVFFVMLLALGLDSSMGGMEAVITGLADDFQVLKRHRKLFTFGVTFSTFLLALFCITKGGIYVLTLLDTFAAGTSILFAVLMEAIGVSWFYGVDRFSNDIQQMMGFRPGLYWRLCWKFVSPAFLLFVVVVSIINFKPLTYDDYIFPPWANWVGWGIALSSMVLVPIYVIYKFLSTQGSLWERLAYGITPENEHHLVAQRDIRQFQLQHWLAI
Cannabinoid receptor 1 (Homo sapiens), sequence (P21554 whole entry): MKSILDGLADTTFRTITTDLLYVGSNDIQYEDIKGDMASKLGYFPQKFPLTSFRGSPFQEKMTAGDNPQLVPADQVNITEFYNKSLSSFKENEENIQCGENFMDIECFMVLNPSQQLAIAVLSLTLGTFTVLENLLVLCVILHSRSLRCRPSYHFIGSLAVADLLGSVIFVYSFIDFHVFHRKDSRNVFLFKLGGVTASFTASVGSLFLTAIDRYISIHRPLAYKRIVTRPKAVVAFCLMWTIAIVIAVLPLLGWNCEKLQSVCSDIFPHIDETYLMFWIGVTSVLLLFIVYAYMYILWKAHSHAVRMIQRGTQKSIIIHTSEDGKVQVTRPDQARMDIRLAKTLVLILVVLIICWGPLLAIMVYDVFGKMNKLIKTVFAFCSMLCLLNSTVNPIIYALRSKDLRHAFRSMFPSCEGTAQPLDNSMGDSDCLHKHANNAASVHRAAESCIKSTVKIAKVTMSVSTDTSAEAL
Amine oxidase [flavin-containing] B, sequence (P27338 whole entry): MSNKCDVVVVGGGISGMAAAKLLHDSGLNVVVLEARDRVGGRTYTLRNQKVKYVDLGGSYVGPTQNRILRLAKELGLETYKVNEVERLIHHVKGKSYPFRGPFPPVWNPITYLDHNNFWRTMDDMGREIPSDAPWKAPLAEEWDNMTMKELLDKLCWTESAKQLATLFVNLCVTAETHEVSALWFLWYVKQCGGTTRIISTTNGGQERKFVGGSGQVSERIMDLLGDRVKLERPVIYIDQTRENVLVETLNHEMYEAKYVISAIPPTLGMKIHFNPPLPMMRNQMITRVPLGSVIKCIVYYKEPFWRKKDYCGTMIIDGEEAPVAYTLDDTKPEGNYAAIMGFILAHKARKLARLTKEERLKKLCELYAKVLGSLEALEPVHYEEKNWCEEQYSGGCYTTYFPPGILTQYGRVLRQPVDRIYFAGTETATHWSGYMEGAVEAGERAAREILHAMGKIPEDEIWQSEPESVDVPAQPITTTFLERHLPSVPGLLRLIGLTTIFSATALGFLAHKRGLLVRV
Beta-1 adrenergic receptor (Homo sapiens), sequence (P08588 whole entry, looked up): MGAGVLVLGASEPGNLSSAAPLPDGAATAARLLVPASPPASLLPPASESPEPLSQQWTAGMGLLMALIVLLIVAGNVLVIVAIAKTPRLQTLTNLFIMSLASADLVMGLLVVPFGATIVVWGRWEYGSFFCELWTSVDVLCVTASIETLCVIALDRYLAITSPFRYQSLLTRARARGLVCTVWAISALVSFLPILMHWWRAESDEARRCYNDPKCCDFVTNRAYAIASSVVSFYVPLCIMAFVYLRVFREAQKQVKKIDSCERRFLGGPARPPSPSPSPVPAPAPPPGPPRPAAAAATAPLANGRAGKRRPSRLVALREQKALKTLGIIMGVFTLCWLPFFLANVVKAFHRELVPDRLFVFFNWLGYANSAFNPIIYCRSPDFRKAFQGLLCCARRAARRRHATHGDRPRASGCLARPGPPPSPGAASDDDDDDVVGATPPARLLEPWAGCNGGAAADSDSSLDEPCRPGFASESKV
Prostaglandin G/H synthase 1, sequence (P23219 whole entry): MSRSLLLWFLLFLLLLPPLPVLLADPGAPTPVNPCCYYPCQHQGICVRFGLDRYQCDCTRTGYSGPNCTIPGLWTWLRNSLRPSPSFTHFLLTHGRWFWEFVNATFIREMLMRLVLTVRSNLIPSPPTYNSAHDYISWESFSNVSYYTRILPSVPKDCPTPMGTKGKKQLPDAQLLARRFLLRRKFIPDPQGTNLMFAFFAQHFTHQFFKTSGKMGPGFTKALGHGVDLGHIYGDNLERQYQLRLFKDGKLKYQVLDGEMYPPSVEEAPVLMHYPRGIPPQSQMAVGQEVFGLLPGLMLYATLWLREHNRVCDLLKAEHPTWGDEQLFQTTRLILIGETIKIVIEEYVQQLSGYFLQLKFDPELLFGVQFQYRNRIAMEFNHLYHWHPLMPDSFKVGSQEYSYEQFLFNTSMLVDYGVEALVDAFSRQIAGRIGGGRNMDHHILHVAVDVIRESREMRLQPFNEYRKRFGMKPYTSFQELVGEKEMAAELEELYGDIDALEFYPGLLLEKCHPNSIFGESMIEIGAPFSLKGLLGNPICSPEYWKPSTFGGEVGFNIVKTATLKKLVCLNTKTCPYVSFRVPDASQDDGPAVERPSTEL
Alpha-2A adrenergic receptor (Homo sapiens), sequence (P08913 whole entry): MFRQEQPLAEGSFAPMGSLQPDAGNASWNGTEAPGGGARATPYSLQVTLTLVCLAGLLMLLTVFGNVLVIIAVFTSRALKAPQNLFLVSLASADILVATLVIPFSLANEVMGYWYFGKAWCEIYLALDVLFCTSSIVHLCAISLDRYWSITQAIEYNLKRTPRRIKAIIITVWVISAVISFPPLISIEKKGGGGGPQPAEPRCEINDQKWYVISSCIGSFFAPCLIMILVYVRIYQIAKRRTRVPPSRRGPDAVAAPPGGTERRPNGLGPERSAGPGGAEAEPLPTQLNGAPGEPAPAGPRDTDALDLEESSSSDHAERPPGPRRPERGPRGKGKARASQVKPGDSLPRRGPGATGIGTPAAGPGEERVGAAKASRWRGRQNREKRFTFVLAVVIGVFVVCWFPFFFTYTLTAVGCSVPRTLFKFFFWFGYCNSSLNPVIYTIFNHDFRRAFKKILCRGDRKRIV

c1ccc2cc(-c3nnc(N4CCCCC4)cc3-c3ccncc3)ccc2c1
t1/2 [1]: 0.1 h

c1ccc2cc(-c3nnc(N4CCNCC4)cc3-c3ccncc3)ccc2c1
t1/2 [1]: > 1 h

CN1CCN(c2cc(-c3ccncc3)c(-c3ccc4ccccc4c3)nn2)CC1 [MW-150]
Activity (Mus musculus [2]): Active | Activity (Mus musculus [3]): Active | Activity (Mus musculus [4]): Active | Activity (Mus musculus [5]): Active | Activity (Mus musculus [6]): Active | Activity (Mus musculus [7]): inactive | Activity (Mus musculus [8]): Non-Toxic | inhibition (INH) (Cytochrome P450 1A2): Not Active | inhibition (INH) (Cytochrome P450 2B6): Not Active | inhibition (INH) (Cytochrome P450 2C8): Not Active | inhibition (INH) (Cytochrome P450 2C9): Not Active | inhibition (INH) (Cytochrome P450 2C19): Not Active | inhibition (INH) (Cytochrome P450 2D6): Not Active | inhibition (INH) (Cytochrome P450 3A4 [9]): Not Active | inhibition (INH) (Cytochrome P450 3A4 [10]): Not Active | permeability [11]: Permeable | permeability [12]: Permeable | Activity [13]: Non-Toxic | Activity [14]: Non-Toxic | inhibition (INH) [15]: Not Active | inhibition (INH) [16]: Not Active | inhibition (INH) (Acetylcholinesterase): Not Active | inhibition (INH) [17]: Not Active | inhibition (INH) [18]: Not Active | inhibition (INH) [19]: Not Active | inhibition [20]: inactive | inhibition [21]: inactive | inhibition [22]: inactive | inhibition [23]: inactive | inhibition [24]: inactive | inhibition [25]: inactive | inhibition [26]: inactive | inhibition [27]: inactive | inhibition [28]: inactive | inhibition [29]: inactive | inhibition [30]: inactive | inhibition [31]: inactive | inhibition [32]: inactive | inhibition [33]: inactive | inhibition [34]: inactive | inhibition [35]: inactive | inhibition [36]: inactive | inhibition [37]: inactive | inhibition [38]: inactive | inhibition [39]: inactive | inhibition [40]: inactive | inhibition [41]: inactive | inhibition [42]: inactive | inhibition [43]: inactive | inhibition [44]: inactive | inhibition [45]: inactive | inhibition [46]: inactive | inhibition [47]: inactive | inhibition (INH) [48]: Not Active | inhibition (Rattus norvegicus [49]): inactive | inhibition (Rattus norvegicus [50]): inactive | inhibition [51]: inactive | inhibition [52]: inactive | inhibition [53]: inactive | NOAEL at 336 h (in vivo): 125 mg/kg | half-life at 1 µM (in vitro [54]): > 2 h | half-life at 1 µM (in vitro [55]): > 2 h | inhibition [56]: inactive
